The target of assay [1] is T1, muscle-type nicotinic receptors (Mus musculus, UniProt P02716+P04756+P09690).
T1 construct: nicotinic currents recorded from cultured muscle cells (myotubes, I28); endogenous in cells; host or cells: I28 myotubes
In words: Patch-clamp recording of nicotinic currents in cultured muscle cells (myotubes, I28). Type of assay: cell-based. As for the experimental part:
A set of experiments was carried out using […] which represent myotubes and therefore contain muscle-type nicotinic receptors. For this purpose the cells were prepared according to method by Irintchev et al. (1997).
(§1) Dishes containing cultured cells (used from 0 to 3 days after their preparation) were placed on an inverted Nikon DIAPHOT™ microscope and continuously superfused (5–10 ml/min) with control saline containing (mM): NaCl 135, KCl 5, MgCl2 1, CaCl2 2, glucose 15, HEPES 10 (pH 7.4 with addition of […]; 285 mOsm osmolarity). The patch pipettes, obtained from glass capillary tubes (1.5 mm o.d.) had 5–6 MΩ resistance when filled with intracellular solution containing: (mM) CsCl 120; HEPES 20; MgCl2 1; Mg2ATP3 3, BAPTA 10 (240 mOsm). The pH of the intracellular solution was adjusted to 7.2 with CsOH. Unless otherwise specified, all recordings were carried out at −70 mV membrane potential. After obtaining whole-cell configuration (Hamill et al. 1981), each cell was stabilized for […] period, after which membrane ionic currents, mediated by nAChR activation, were recorded, filtered at 1 kHz, and stored in a PC for subsequent analysis with the pCLAMP 6.04 program (Axon Instruments Inc., Foster City, Calif.).
To this end we studied whether this peptide could affect nicotinic currents recorded from cultured muscle cells (myotubes, I28). These cells were kept at −60 mV potential by the patch electrode.
Background: The patch-clamp technique gives a direct electrical read-out from membranes.

Assay [2] has as its system nAChRs of rat chromaffin cells. In words: Patch-clamp recording of nicotine-induced currents in cultured rat chromaffin cells. Type of assay: cell-based. Particulars: for depression (reduction) of the response to nicotine: 5 μM physostigmine, 0.1 mM nicotine; for effect on nicotine dose response curve: 1 μM peptide or 0.5 μM physostigmine. As for the experimental part:
Cultures of rat chromaffin cells were prepared according to the Brandt method (Brandt et al., 1976, Giniatullin et al., 1999, Khirough et al., 1997, 1998). 25–35 day old rats were anaesthetized by increasing CO2 levels and then their adrenal glands were removed. The medullary part was separated from the cortical portion of the gland in buffer solution (pH 7.2) containing (mM): NaCl 137, KCl 3, Na2HPO4 0.7, HEPES 25, glucose 10 and 350 U ml^−1 of penicillin and streptomycin.
Cells were successively dissociated from fragments of medullary tissue at 37° C. over about 60 min, by passing them through a Pasteur pipette at 15 min intervals, and by enzymatic treatment with collagenase A and DNAse I (0.5 U ml^−1 and 10 μgml^−1). The cell containing suspension was then centrifuged at 700 rpm for 5 min and washed twice in HEPES buffered medium. The cells, after re-suspension in DMEM culture medium (Dulbecco's modified Eagle's medium) with addition of 10% FCS (calf fetal serum), were plated on poly-lysine (5 mg/ml)-pretreated Petri dishes and cultured at 37° C. for 1–2 days in 5% CO2 containing atmosphere.
as §1
nAChR agonists were administered to single cells by a pressure system from a micropipette containing a relatively concentrated solution and placed at […] distance from the recorded cell. […] This method allows very rapid administration of a chemical substance with a few ms latency to observe a cell response. For application of antagonists, test compounds and control solution we used a rapid superfusion system (Bio-logic, France) consisting of an array of glass capillary tubes (0.8 mm o.d.) which, through rapid rotation, generate solution flow onto the treated cell. In this case the exchange time between two solutions is about 50 ms.

The subject of assay [3] is nAChRs. Particulars: Giniatullin et al.; cited from earlier work.
[4] abbreviates: 1 μM peptide, nicotine 0.1 mM, 20 ms pulse.

The text below walks through data of patent US7030081B2 (S.I.S.S.A.- Scuola Internazionale Superiore di Studi …, priority 2000, dated 2006).

Several values for one entry are separate records, joined by “and”; a condition that tells them apart may be missing. Equal entries are not always repeated. Entries after “also recorded” stand apart in the source; their conditions may differ. No end group written: not given here.

T1 sequence (P04756 21-457): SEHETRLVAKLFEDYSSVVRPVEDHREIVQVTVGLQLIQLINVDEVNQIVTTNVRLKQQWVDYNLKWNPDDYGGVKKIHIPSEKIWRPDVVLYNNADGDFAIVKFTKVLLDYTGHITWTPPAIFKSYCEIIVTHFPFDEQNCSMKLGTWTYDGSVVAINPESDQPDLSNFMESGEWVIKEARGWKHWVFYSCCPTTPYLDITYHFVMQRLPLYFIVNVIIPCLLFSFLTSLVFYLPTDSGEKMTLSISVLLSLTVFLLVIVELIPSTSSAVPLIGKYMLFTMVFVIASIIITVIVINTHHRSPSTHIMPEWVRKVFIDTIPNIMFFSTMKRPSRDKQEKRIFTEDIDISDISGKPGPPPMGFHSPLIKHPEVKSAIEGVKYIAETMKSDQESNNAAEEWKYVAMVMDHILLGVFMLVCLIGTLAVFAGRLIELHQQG
T1 sequence (P09690 24-501): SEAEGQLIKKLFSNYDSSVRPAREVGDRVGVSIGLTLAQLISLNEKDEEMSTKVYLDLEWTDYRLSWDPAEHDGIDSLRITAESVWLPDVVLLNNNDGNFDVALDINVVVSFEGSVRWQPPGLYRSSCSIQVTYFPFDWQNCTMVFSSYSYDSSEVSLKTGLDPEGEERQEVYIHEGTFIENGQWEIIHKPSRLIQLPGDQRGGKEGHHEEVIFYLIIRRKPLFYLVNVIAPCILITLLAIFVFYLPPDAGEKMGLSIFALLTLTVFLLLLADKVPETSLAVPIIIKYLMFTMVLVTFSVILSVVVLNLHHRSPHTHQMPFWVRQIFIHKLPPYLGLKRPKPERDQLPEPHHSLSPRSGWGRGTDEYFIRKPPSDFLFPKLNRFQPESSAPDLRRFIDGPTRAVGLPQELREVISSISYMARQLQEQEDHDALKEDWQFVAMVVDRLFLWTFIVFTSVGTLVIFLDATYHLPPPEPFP
T1 sequence (P02716 25-520): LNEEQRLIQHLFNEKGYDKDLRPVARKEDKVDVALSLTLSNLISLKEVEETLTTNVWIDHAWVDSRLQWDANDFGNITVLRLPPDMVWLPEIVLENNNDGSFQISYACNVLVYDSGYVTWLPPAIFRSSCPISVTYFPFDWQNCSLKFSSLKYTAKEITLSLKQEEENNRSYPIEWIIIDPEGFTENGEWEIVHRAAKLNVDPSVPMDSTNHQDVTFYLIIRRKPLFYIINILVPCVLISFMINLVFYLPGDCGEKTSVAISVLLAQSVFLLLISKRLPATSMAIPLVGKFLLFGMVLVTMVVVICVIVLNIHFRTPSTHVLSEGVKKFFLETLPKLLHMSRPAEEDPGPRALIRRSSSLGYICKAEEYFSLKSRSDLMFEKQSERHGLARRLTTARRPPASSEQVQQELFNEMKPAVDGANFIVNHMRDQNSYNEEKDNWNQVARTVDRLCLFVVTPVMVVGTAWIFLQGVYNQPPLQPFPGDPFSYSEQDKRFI
T1 sequence (P04760 23-519 partner): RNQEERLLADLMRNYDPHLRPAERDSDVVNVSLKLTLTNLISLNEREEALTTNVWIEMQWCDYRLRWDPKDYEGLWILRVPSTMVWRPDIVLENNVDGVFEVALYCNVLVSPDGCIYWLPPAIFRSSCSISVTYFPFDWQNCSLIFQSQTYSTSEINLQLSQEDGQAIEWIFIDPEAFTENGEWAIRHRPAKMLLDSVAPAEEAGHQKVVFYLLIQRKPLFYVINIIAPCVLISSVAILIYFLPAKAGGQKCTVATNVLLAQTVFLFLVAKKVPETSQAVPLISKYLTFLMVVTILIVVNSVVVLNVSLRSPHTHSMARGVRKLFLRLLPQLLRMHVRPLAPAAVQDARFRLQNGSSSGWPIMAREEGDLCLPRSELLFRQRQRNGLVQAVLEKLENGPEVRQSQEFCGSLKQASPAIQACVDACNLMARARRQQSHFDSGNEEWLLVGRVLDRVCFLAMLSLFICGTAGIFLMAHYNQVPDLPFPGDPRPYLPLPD

As to `CN1CCCC1c1cccnc1` (stereo not drawn) [Nicotine, nicotine, reference compound], the EC50 – broadly, the concentration at which the effect is half-maximal – in assay [1] was found to be 100 µM.

On to `CNC(=O)Oc1ccc2c(c1)[C@]1(C)CCN(C)[C@@H]1N2C` [physostigmine, reference compound], for which the “depression (reduction) of the response to nicotine” value in assay [2] (20 ms) is recorded as 48±5%; in assay [2] (20 ms, listed as phystigmine), 77±1%.

With SCNTAT [CGRP 1-6], in assay [1], the “effect on muscle-type nicotinic receptor responses (in words)” value is listed as “did not modify the muscle-type nicotinic receptor responses”. Moreover, the “amplitude of nicotine responses as % of the controls” value in assay [1] (1 μM CGRP 1-6 pre-applied for 2 minutes, nicotine 100 μM, −60 mV) is on record as 101±2%. Further, the “potentiation of nicotine current at threshold” value in assay [2] (0.1 μM peptide, nicotine 20 ms, 0.1 mM) is listed as 105±7%. Also, the “nicotine currents (fraction of control) on concurrent application of CGRP 1-6 and CGRP 1-7” value in assay [2] (1 μM concentration of both) is recorded as 99±4%. In assay [2] (1 μM peptide), the “application time after which enhancement is observed” value is reported as not above 5 s and the “wash time for reversal of enhancement” value is “about 1 min”. In assay [2], the “effect on nicotine dose response curve” value was “shifted to the left in a parallel fashion without modification of the maximum response”. Moreover, the “effect on maximal currents (saturating nicotine pulse)” value in assay [2] (1 μM peptide, 200 ms nicotine pulse) is given as “absent; also recorded: not modified”. In addition, in assay [2] (setting [4]), the “enhancement of nicotine induced currents” value was 31% and 31±7% and 21±4%. Further, the “maximum value of potentiation of nicotine current” value in assay [2] (50 μM peptide, nicotine 20 ms, 0.1 mM) worked out at 156±6%. Further, in assay [2] (CGRP 1-6 1 μM + physostigmine 0.5 μM), the “enhancement with combined application of CGRP 1-6 and physostigmine” value was determined as 37±6%. The “washout time for current to return to the initial value” in assay [2] (FIG. 3C) is 45 to 60 s. For the same compound, in assay [2] (cytisine 20 ms, 0.1 mM), the “enhancement with cytisine as agonist” value is “enhancing effect was exerted also when nAChRs were activated by cytisine”. In assay [2] (nicotine 0.1 mM, 20 ms, 0.05–100 μM tested), the “CGRP 1-6 enhancing action threshold value” was 0.1 µM. Further, in assay [2] (physostigmine 5 μM + CGRP 1-6 1 μM), the “nicotine currents as % of the control with physostigmine plus CGRP 1-6” value was 79±1%. Also, in assay [2] (resting membrane conductance, baseline current), the “direct action in the absence of agonist” value is “not associated with any direct action”. Also, in assay [2] (−40, −70 and −100 mV), the “dependence of enhancing action on membrane potential” value is reported as “independent from the membrane potential”.

In the case of “SCNTATA [CGRP 1-7A, Cys7 replaced with Ala]”, the “wash time for reversal of enhancement” value in assay [2] (1 μM peptide) is recorded as “about 1 min”. Moreover, the “effect on nicotine dose response curve” value in assay [2] is “significantly shifted to left without increase in the maximum response”. In addition, the “enhancement of nicotine induced currents” value in assay [2] (setting [4]) is reported as 17±4%; in assay [2] (1 μM peptide, nicotine 0.1 mM, 20 ms pulse, listed as 1-7A) it was 18%; in assay [2] (1 μM peptide, nicotine 0.1 mM, 20 ms pulse, listed as CGRP 1-7 A), “about 18%”.

Regarding “SCNTATC (cysteine pairing not given here) [CGRP 1-7, reference compound]”, in assay [3], the “action on nAChRs reported earlier (in words)” value is “rapidly developing, competitive antagonism readily reversible on wash”. In assay [2] (1 μM peptide), the “inhibition of nicotine currents” value turned out to be 42%.

As to “Ser-Cys-Asn-Thr (SCNT; listed as Homo sapiens) [CGRP 1-4]”, the “enhancement of nicotine induced currents” value in assay [2] (setting [4]) was determined as 8±1%. The “action of fragment on nicotinic currents (in words)” value in assay [2] (FIG. 5B) was “modest enhancing effect”.

For “Ser-Cys-Asn-Thr-Ala (SCNTA; listed as Homo sapiens) [CGRP 1-5]”, the “enhancement of nicotine induced currents” value in assay [2] (10 μM peptide) is listed as 26±4%.
